{"source": "patent US20240261302A1", "about": "“METHODS OF TREATING NEURODEGENERATIVE DISEASES OR CONDITIONS” (FloraScience Inc., priority 2023, published 2024)", "test": "Trolox Equivalent Antioxidant Capacity (TEAC) Assay", "type": "biochemical", "conditions": "5 to 10 μM, compared to Trolox at 5 μM", "procedure": "Trolox Equivalent Antioxidant Capacity (TEAC) Assay. Briefly, an aqueous 2,2′-azino-bis(3-ethylbenzothiazoline-6-sulfonic acid) (ABTS) solution (7 mM) was treated with potassium persulfate (K2S2O8) (2.5 mM) overnight at room temperature in the dark and diluted in water to an OD value of 0.7 at 734 nm. 190 μL of the diluted ABTS solution was added to a 96-well plate containing 10 μL of test compounds or Trolox at the desired concentrations. The plate was vigorously mixed and incubated for 4 min at room temperature in the dark. Optical absorbance was measured at 734 nm on a SpectraMax M5 microplate reader. The decrease in absorbance of the ABTS radical cation indicates the presence of antioxidants. Samples were analyzed in eight wells per independent experiment (n=8). The TEAC values of each sample were presented as the percentage of the standard Trolox at 5 μM."}
{"smiles": "CCCCCc1cc(O)c2c(c1)OC(C)(C)c1ccc(C)cc1-2", "note": "[CBN, 6,6,9-Trimethyl-3-pentyl-benzo[c]chromen-1-ol]", "values": [{"measurement": "capacity to scavenge total free radicals (TEAC)", "result": "relatively weak capacity"}]}
